Assay results reported in the OPERA property sets (Mansouri et al. 2018).

For `CC(Oc1ccccc1)C(=O)N[C@@H]1C(=O)N2[C@@H]1SC(C)(C)[C@@H]2C(=O)O` (some centres not stated), the logP was 2.2. `ClC(Cl)C(Cl)Cl` gave a logP of 2.39. Work on `CCCNC(=O)c1ccc(S(N)(=O)=O)cc1` yielded a logP of 0.51. In the case of `ClC(Cl)=Nc1ccccc1`, the logP is reported as 2.54. In the case of `NCCCc1ccccn1`, the logP is reported as 0.49. With `c1ccc(-c2csnn2)cc1` the logP was 2.42. With `CCCCOC(=O)c1cccnc1` the logP was 2.27. In the case of `OC(c1ccccc1)(C(F)(F)F)C(F)(F)F`, the logP is reported as 3.41. With `CCOC(=O)CON=Cc1ccc(OCC(=O)OCC)c(OC)c1` the logP was 1.87. `CON(C)C(=O)Nc1ccc(C=C(C#N)C#N)cc1` showed a logP of 2.19. `CCCCNc1ccccc1OC` gave a logP of 2.85. Work on `CCCCCc1ccccc1` yielded a logP of 4.9. With `Cc1nc([N+](=O)[O-])cn1CCO` the logP was -0.59. Work on `NC(=S)c1ccccc1` yielded a logP of 1.49. Work on `O=Cc1ccc([N+](=O)[O-])o1` yielded a logP of 1.01. `CN(C)CC=Cc1ccccc1` showed a logP of 2.61. Compound `ClC=C(Cl)Cl` has a logP of 2.42. Work on `CC(=O)OC(OC(C)=O)c1ccc([N+](=O)[O-])o1` yielded a logP of 1.06. `CCCCNc1ccccc1` showed a logP of 3.58. Compound `CCN(CC)c1nc(Cl)nc(NC(C)C)n1` has a logP of 3.94. Compound `Clc1cnc(Cl)c(Cl)c1` has a logP of 3.11. In the case of `CCCCOC(=O)Oc1cccc(C2(C(=O)CC)CCN(C)CC2)c1`, the logP is reported as 2.42. For `c1ccc(-c2ccncc2)cc1`, the logP was 2.59. `O=C(O)CCc1c[nH]c2ccccc12` showed a logP of 1.75. In the case of `COc1ccc(C=CNC=O)cc1`, the logP is reported as 1.94. `COc1cccc2c1C(=N)c1c(O)c3c(c(O)c1C2=O)CC(O)(C(O)CO)CC3OC1CC(N2CCOCC2)C(O)C(C)O1` (configuration not stated) showed a logP of 1.43. Work on `CCOCC` yielded a logP of 0.89. For `CCCC(=O)CC(=O)CCC`, the logP was 2.23. `CCCCCCCCN(C)/N=N/c1ccc(C(N)=O)cc1` showed a logP of 4.7. Compound `O=[N+]([O-])C=Cc1ccc(Cl)cc1` has a logP of 2.44. Work on `COC(=O)c1cccc(O)c1` yielded a logP of 1.89. `CCOS(=O)(=O)OCC` gave a logP of 1.14. In the case of `OCc1ccncc1`, the logP is reported as 0.06. In the case of `Nc1ccccc1Oc1ccccc1`, the logP is reported as 2.46. Work on `CCOC(=O)C(=Cc1cccc(OC)c1)C(C)=O` yielded a logP of 2.34. With `OCC1OC(n2cnc3c(S)ncnc32)C(O)C1O` (configuration not stated) the logP was -0.6. `CCOC(OCC)OCC` gave a logP of 1.2. Compound `O=C1NC(=O)C(c2ccccc2)(c2ccccc2)N1` has a logP of 2.47. For `Cc1cccc2cccc(C)c12`, the logP was 4.26. Work on `CC(C)(C)NC(=O)[C@H]1CC[C@H]2[C@@H]3CC[C@H]4NC(=O)C=C[C@]4(C)[C@H]3CC[C@]12C` yielded a logP of 3.03. In the case of `CNC(=O)Oc1ccc(C(C)(C)C)cc1`, the logP is reported as 3.06. For `CCCCC(C)=O`, the logP was 1.38. With `Brc1ccsc1` the logP was 2.62. Compound `Cc1cccc(C)n1` has a logP of 1.68. With `O=C(O)C=CC=Cc1ccccc1` the logP was 3.15. `O=C(C(=O)c1ccccc1)c1ccccc1` gave a logP of 3.38. `Cc1cc(C(=O)NNCc2ccccc2)no1` gave a logP of 1.49. For `CC(=O)c1ccccc1NCC#N`, the logP was 1.58. Compound `ClCCc1ccccc1` has a logP of 2.95. Work on `CC(C)C(=O)NC(CO)C(O)c1ccc([N+](=O)[O-])cc1` (configuration not stated) yielded a logP of 0.79. For `Cc1nnc2n1-c1sc(Br)cc1C(c1ccccc1Cl)=NC2`, the logP was 2.79. `ClCBr` showed a logP of 1.41. `CCc1cnc(NS(=O)(=O)c2ccc(N)cc2)nc1` showed a logP of 0.9. In the case of `CCCN(CCC)C1CCOc2ccc(O)cc21` (configuration not stated), the logP is reported as 3.17. For `C=C(C)Cl`, the logP was 2. With `CCC1(c2ccccc2)C(=O)NCNC1=O` the logP was 0.91. With `C[C@]12CC[C@H]3[C@@H](CCC4=CC(=O)CC[C@@]43C)[C@@H]1CC[C@@H]2C(=O)CO` the logP was 2.88. With `N#Cc1cccc([N+](=O)[O-])c1` the logP was 1.17. With `O=c1cccccc1O` the logP was 0.53. In the case of `CCCC=O`, the logP is reported as 0.88. Work on `CCOC(=O)C(C#N)=NNc1ccccc1Cl` yielded a logP of 3.38. Compound `O=C(O)C=CC(=O)c1ccccc1` has a logP of 1.53. In the case of `CCCCC1OC(=O)c2ccccc21` (configuration not stated), the logP is reported as 2.8. In the case of `Cc1cc(CC(=O)O)ccc1OCc1ccccc1`, the logP is reported as 3.37. `O=C(O)c1cc(Br)ccc1O` showed a logP of 3.23. Compound `OCC(Cl)(Cl)Cl` has a logP of 1.42. `FC(F)(F)c1ccccc1` gave a logP of 3.01. Compound `OCCN1CCN(CCC=C2c3ccccc3Sc3ccc(C(F)(F)F)cc32)CC1` has a logP of 4.51. `O=C(O)c1ccc2ccccc2c1` gave a logP of 3.28. `CC(C)NC(=O)NO` gave a logP of 0.2. `NC(=O)c1cccc2[nH]ccc12` gave a logP of 0.66. For `Nc1nnc(Cc2ccccc2)o1`, the logP was 0.95. Compound `CCc1ccc(N2C(=O)CCC2=O)cc1` has a logP of 1.1. Compound `O=C1C=CCCC1` has a logP of 0.61. `CC(=O)OC1CCCCC1NC(=O)N(CCCl)N=O` (configuration not stated) gave a logP of 1.98. `O=C(O)COc1cccc(-c2ccccc2)c1` showed a logP of 3.18. With `CCOP(=S)(OCC)SCCSCC` the logP was 4.02. In the case of `CNC(=O)Oc1ccc(C)cc1`, the logP is reported as 1.66. For `CN(C)CCN1C(=O)c2ccccc2N(C)c2ccccc21`, the logP was 2.5. `NC(=O)NO` gave a logP of -1.8. Work on `O=C(O)c1cc([N+](=O)[O-])cc([N+](=O)[O-])c1` yielded a logP of 1.55. For `CC(=O)Nc1ccccc1C`, the logP was 0.85. Compound `NC(=O)[C@@H]1CCCN1C(=O)[C@H](Cc1cnc[nH]1)NC(=O)[C@@H]1CCC(=O)N1` has a logP of -2.46. In the case of `Oc1ccccc1C=Nc1ccccc1`, the logP is reported as 3.09. Compound `CCCOC1OC(CO)C(O)C(O)C1O` (configuration not stated) has a logP of -1.66. `Nc1ccccc1S` gave a logP of 1.43. In the case of `O=C1CCCCCCCN1`, the logP is reported as 0.67. `FC(F)(F)c1cccc2cccnc12` gave a logP of 2.5. For `COC(OC)OC`, the logP was 0.25. `CNC(=O)Oc1cccc2c1OC(C)(C)C2` showed a logP of 2.32. With `O=[N+]([O-])c1ncc[nH]1` the logP was 0.15. For `CNC(=O)Oc1cccc(C(C)C)c1`, the logP was 2.63. Compound `CCC1(CCC(C)C)C(=O)NC(=S)NC1=O` has a logP of 2.98. `COC(=O)CCc1ccccc1` gave a logP of 2.32. For `CSSC`, the logP was 1.77. `OCCNc1ccccc1` showed a logP of 0.82. In the case of `CNC(=O)C=Cc1ccccc1`, the logP is reported as 1.81. With `FC(F)(F)c1nc2c(Br)c(Br)c(Br)c(Br)c2[nH]1` the logP was 4.81. In the case of `CN(C)CC(F)(F)F`, the logP is reported as 1.06. `O=[N+]([O-])c1ccc(Br)cc1` showed a logP of 2.55. Work on `c1ccc2[nH]nnc2c1` yielded a logP of 1.44. With `CC(C)CCOc1cc(N)ccc1C(=O)O` the logP was 2.3. `CN(C)C(N(C)C)=S(I)c1ccc(C#N)cc1` (configuration not stated) gave a logP of -1.13. `COc1cc2c(c(OC)c1OC)-c1ccc(N)c(=O)cc1[C@@H](NC(C)=O)CC2` gave a logP of 0.3. With `O=C(CN1CCCCC1)Nc1cccc(F)c1` the logP was 2.85. `C=CCNCCC` gave a logP of 1.33. For `COC1=CC(=O)C[C@@H](C)[C@]12Oc1c(Cl)c(OC)cc(OC)c1C2=O`, the logP was 2.18. Compound `COc1ccc(OCC(=O)O)cc1` has a logP of 1.23. Work on `CCOc1ccc(NC(=O)OC2CCCC2)cc1OCC` yielded a logP of 3.33. With `O=c1ccnc(S)[nH]1` the logP was -0.28. With `CON(C)C(=O)Nc1ccc(F)cc1` the logP was 1.46. Compound `CCc1ccccc1-c1nc(N)nc(N)n1` has a logP of 1.65. Compound `CCN(CC)C(=S)SSC(=S)N(CC)CC` has a logP of 3.88. In the case of `O=[N+]([O-])c1ccccn1`, the logP is reported as 0.48. Compound `CNC(=O)C1C(C)CC2C3CCC4=CC(=O)C=CC4(C)C3(F)C(O)CC21C` (configuration not stated) has a logP of 1.54. `NCCCCc1ccccn1` gave a logP of 0.86. Compound `FC(F)(F)c1nc2ccc(Br)cc2[nH]1` has a logP of 3.57. Work on `Clc1nc(Cl)c(Cl)c(Cl)c1Cl` yielded a logP of 3.53. Work on `Oc1ccc(Cc2ccc(O)cc2)cc1` yielded a logP of 2.91. `C=CCOC(C)=O` gave a logP of 0.97. Compound `OC(c1ccccc1)c1ccccn1` (configuration not stated) has a logP of 1.52. With `CNc1nc(NC)nc(SC(F)F)n1` the logP was 2.31. Compound `Cc1ccccc1N(C)C` has a logP of 2.85. Work on `CCOC(=O)c1cccc([N+](=O)[O-])c1` yielded a logP of 2.35. `CBr` gave a logP of 1.19. For `c1ccc2[nH]ccc2c1`, the logP was 2.14. Compound `CCCCOC(=O)N(C)SN(C)C(=O)Oc1cccc2c1OC(C)(C)C2` has a logP of 4.7. For `CCNc1nc(Cl)nc(NCC)n1`, the logP was 2.18. In the case of `S=C1CCCCN1`, the logP is reported as 0.13. Work on `Cc1ccc([N+](=O)[O-])cc1` yielded a logP of 2.37. `OCCNCc1ccccc1` gave a logP of 0.79. `CCC(=O)OC1(C(=O)CCl)C(C)CC2C3CCC4=CC(=O)C=CC4(C)C3(Cl)C(O)CC21C` (configuration not stated) gave a logP of 3.28. With `CC(=O)OCC1=C(C(=O)O)N2C(=O)[C@@H](NC(=O)Cc3cccs3)[C@H]2SC1` the logP was -0.41. Compound `Fc1cc(F)c(F)c(F)c1F` has a logP of 2.53. Work on `Cc1ccc(NC=O)cc1` yielded a logP of 1.61. For `O=C(CN1CCCCC1)Nc1ccccc1`, the logP was 2.71. `Cn1cc[nH]c1=S` gave a logP of -0.34. `O=C(COc1ccccc1)NNCc1ccccc1` showed a logP of 2.16. With `Cc1cccc2cccnc12` the logP was 2.6. With `CNC(C)Cc1ccccc1` (configuration not stated) the logP was 2.07. In the case of `COC(=O)Cc1cccs1`, the logP is reported as 1.51. `CC(=O)c1ccccc1S(I)=C(N(C)C)N(C)C` (configuration not stated) gave a logP of -0.81. `O=C(Cc1ccccc1)c1ccccc1` showed a logP of 3.18. With `COc1ccc(Cl)cc1` the logP was 2.78. `Cc1ccc(NS(=O)(=O)C(F)(F)F)cc1` gave a logP of 3.6. With `C=CCC1(C(C)CCC)C(=O)NC(=O)NC1=O` (configuration not stated) the logP was 1.97. Compound `Cc1ncc([N+](=O)[O-])n1CC(C)O` (configuration not stated) has a logP of 0.22. Compound `COc1cc(SC)c(OC)cc1CCN` has a logP of 1.81. In the case of `C1=Cc2ccc3c4c(ccc(c24)C1)-c1ccccc1-3`, the logP is reported as 5.78. Compound `NC(=O)CCc1cccnc1` has a logP of -0.26. Compound `NC(=O)Nc1cccc(Br)c1` has a logP of 2.08. For `Cc1ccc2ncccc2c1`, the logP was 2.57. For `Cc1ccc(C)[nH]1`, the logP was 1.47. Compound `c1ccc2nc(-c3ccc4ccccc4n3)ccc2c1` has a logP of 4.31. `CC(Oc1cc(Cl)c(Cl)cc1Cl)C(=O)O` (configuration not stated) gave a logP of 3.8. For `CCC(C(c1ccc(OC)cc1)c1ccc(OC)cc1)[N+](=O)[O-]` (configuration not stated), the logP was 4.45. Work on `NS(=O)(=O)c1ccc(C(=O)O)cc1` yielded a logP of 0.5. Work on `CC=Cc1ccccc1` yielded a logP of 3.35. `CCN(CC)c1cc(C(=O)NN)ccn1` gave a logP of 1.12. With `OCCCCc1ccccc1` the logP was 2.35. `C1CO1` showed a logP of -0.3. `O=[N+]([O-])c1cccc(I)c1` showed a logP of 2.94. With `CC(=O)NCc1cc(C(=O)NN)ccn1` the logP was -1.58. Compound `O=C(O)COc1ccccc1` has a logP of 1.34. `c1ccc(Cn2ccnn2)cc1` gave a logP of 1.27. Work on `FC(F)(F)c1nc2cc(Cl)c(Cl)cc2[nH]1` yielded a logP of 3.49. `c1ccc2c(c1)OCCO2` gave a logP of 2.01. `O=C(O)c1cccc(Br)c1` gave a logP of 2.87. For `CC1OC(C)OC(C)O1` (configuration not stated), the logP was 0.67. `O=c1ccn(C2OC(CO)C(O)C2O)c(=O)[nH]1` (configuration not stated) showed a logP of -1.98. In the case of `CC(=O)Nc1cccc(C(F)(F)F)c1`, the logP is reported as 2.56. Work on `Oc1ccc(Nc2ccccc2)cc1` yielded a logP of 2.82.
